From the supplement of paper PMC10307832

Key:
Test in all cases: relative viability (nuclei count vs DMSO), 5 days (fraction); higher = more cells survive
Motesanib + Pemetrexed = compound: CC1(C)CNc2cc(NC(=O)c3cccnc3NCc3ccncc3)ccc21 [Motesanib] + Nc1nc2[nH]cc(CCc3ccc(C(=O)N[C@@H](CCC(=O)O)C(=O)O)cc3)c2c(=O)[nH]1 [Pemetrexed] (partner 0.2 µM)
How it was run: (§1)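 Nuclei were stained with Hoechst during a one-step fixation (final 0.05% Triton X-100, 1% formaldehyde, 1 ug/ml Hoechst) carried out 5 days after dosing, then counted on 4× images. The cells, lung cancer lines in 1536-well plates, had been dosed by pin tool the day after seeding with one drug alone or a fixed anchor-drug dose plus five library-drug doses (not always all listed) in √10 steps. Relative viability is the nuclei count in treated wells divided by that in vehicle wells, and each value is the median of duplicate plates.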

[1] = compound: C[C@@]1(C(=O)Nc2ccc(F)nc2)CCCN1c1nc(Nc2cc(C3CC3)n[nH]2)c2cccn2n1 + O=C(CCCCCCC(=O)Nc1ccccc1)NO [Vorinostat] (partner 1 µM)
How it was run: as §1

[2] = compound: C[C@@]1(C(=O)Nc2ccc(F)nc2)CCCN1c1nc(Nc2cc(C3CC3)n[nH]2)c2cccn2n1 + CS(=O)(=O)N1CCN(Cc2cc3nc(-c4cccc5[nH]ncc45)nc(N4CCOCC4)c3s2)CC1 [Pictilisib] (partner 1 µM)
How it was run: as §1

Motesanib + Olaparib = compound: CC1(C)CNc2cc(NC(=O)c3cccnc3NCc3ccncc3)ccc21 [Motesanib] + O=C(c1cc(Cc2n[nH]c(=O)c3ccccc23)ccc1F)N1CCN(C(=O)C2CC2)CC1 [Olaparib] (partner 8 µM)
How it was run: as §1

NCI-H2347
relative viability (Motesanib + Pemetrexed; first compound 0.01 µM): 0.396
relative viability (Motesanib + Pemetrexed; first compound 0.03162 µM): 0.406
relative viability (Motesanib + Pemetrexed; first compound 0.1 µM): 0.387
relative viability (Motesanib + Pemetrexed; first compound 0.3162 µM): 0.447
relative viability (Motesanib + Pemetrexed; first compound 1 µM): 0.364
relative viability ([1]; first compound 0.04 µM): 0.581
relative viability ([1]; first compound 0.1265 µM): 0.487
relative viability ([1]; first compound 0.4 µM): 0.415
relative viability ([1]; first compound 1.265 µM): 0.543
relative viability ([2]; first compound 0.04 µM): 0.595
relative viability ([2]; first compound 0.1265 µM): 0.6
relative viability ([2]; first compound 0.4 µM): 0.516
relative viability ([2]; first compound 1.265 µM): 0.776
relative viability (Motesanib + Olaparib; first compound 0.01 µM): 0.536
relative viability (Motesanib + Olaparib; first compound 0.03162 µM): 0.507
relative viability (Motesanib + Olaparib; first compound 0.1 µM): 0.559
relative viability (Motesanib + Olaparib; first compound 0.3162 µM): 0.537
relative viability (Motesanib + Olaparib; first compound 1 µM): 0.596

NCI-H2405
relative viability (Motesanib + Pemetrexed; first compound 0.01 µM): 1.05
relative viability (Motesanib + Pemetrexed; first compound 0.03162 µM): 1.11
relative viability (Motesanib + Pemetrexed; first compound 0.1 µM): 1.02
relative viability (Motesanib + Pemetrexed; first compound 0.3162 µM): 1.11
relative viability (Motesanib + Pemetrexed; first compound 1 µM): 1.02
relative viability ([1]; first compound 0.04 µM): 0.959
relative viability ([1]; first compound 0.1265 µM): 0.889
relative viability ([1]; first compound 0.4 µM): 0.634
relative viability ([1]; first compound 1.265 µM): 0.44
relative viability ([2]; first compound 0.04 µM): 0.391
relative viability ([2]; first compound 0.1265 µM): 0.357
relative viability ([2]; first compound 0.4 µM): 0.37
relative viability ([2]; first compound 1.265 µM): 0.296
relative viability (Motesanib + Olaparib; first compound 0.01 µM): 0.741
relative viability (Motesanib + Olaparib; first compound 0.03162 µM): 0.808
relative viability (Motesanib + Olaparib; first compound 0.1 µM): 0.859
relative viability (Motesanib + Olaparib; first compound 0.3162 µM): 0.837
relative viability (Motesanib + Olaparib; first compound 1 µM): 0.832

NCI-H3122
relative viability (Motesanib + Pemetrexed; first compound 0.01 µM): 0.186
relative viability (Motesanib + Pemetrexed; first compound 0.03162 µM): 0.191
relative viability (Motesanib + Pemetrexed; first compound 0.1 µM): 0.184
relative viability (Motesanib + Pemetrexed; first compound 0.3162 µM): 0.202
relative viability (Motesanib + Pemetrexed; first compound 1 µM): 0.219
relative viability ([1]; first compound 0.04 µM): 0.91
relative viability ([1]; first compound 0.1265 µM): 0.972
relative viability ([1]; first compound 0.4 µM): 0.916
relative viability ([1]; first compound 1.265 µM): 0.879
relative viability ([2]; first compound 0.04 µM): 0.479
relative viability ([2]; first compound 0.1265 µM): 0.374
relative viability ([2]; first compound 0.4 µM): 0.479
relative viability ([2]; first compound 1.265 µM): 0.393
relative viability (Motesanib + Olaparib; first compound 0.01 µM): 0.581
relative viability (Motesanib + Olaparib; first compound 0.03162 µM): 0.644
relative viability (Motesanib + Olaparib; first compound 0.1 µM): 0.644
relative viability (Motesanib + Olaparib; first compound 0.3162 µM): 0.632
relative viability (Motesanib + Olaparib; first compound 1 µM): 0.683

PC-3 [JPC-3]
relative viability (Motesanib + Pemetrexed; first compound 0.01 µM): 1.02
relative viability (Motesanib + Pemetrexed; first compound 0.03162 µM): 1.04
relative viability (Motesanib + Pemetrexed; first compound 0.1 µM): 1.04
relative viability (Motesanib + Pemetrexed; first compound 0.3162 µM): 1.03
relative viability (Motesanib + Pemetrexed; first compound 1 µM): 0.974
relative viability ([1]; first compound 0.04 µM): 0.717
relative viability ([1]; first compound 0.1265 µM): 0.718
relative viability ([1]; first compound 0.4 µM): 0.755
relative viability ([1]; first compound 1.265 µM): 0.525
relative viability ([2]; first compound 0.04 µM): 0.784
relative viability ([2]; first compound 0.1265 µM): 0.595
relative viability ([2]; first compound 0.4 µM): 0.708
relative viability ([2]; first compound 1.265 µM): 0.644
relative viability (Motesanib + Olaparib; first compound 0.01 µM): 1.14
relative viability (Motesanib + Olaparib; first compound 0.03162 µM): 1.18
relative viability (Motesanib + Olaparib; first compound 0.1 µM): 1.2
relative viability (Motesanib + Olaparib; first compound 0.3162 µM): 1.18
relative viability (Motesanib + Olaparib; first compound 1 µM): 1.16

PC-14
relative viability (Motesanib + Pemetrexed; first compound 0.01 µM): 0.131
relative viability (Motesanib + Pemetrexed; first compound 0.03162 µM): 0.126
relative viability (Motesanib + Pemetrexed; first compound 0.1 µM): 0.132
relative viability (Motesanib + Pemetrexed; first compound 0.3162 µM): 0.128
relative viability (Motesanib + Pemetrexed; first compound 1 µM): 0.13
relative viability ([1]; first compound 0.04 µM): 0.792
relative viability ([1]; first compound 0.1265 µM): 0.102
relative viability ([1]; first compound 0.4 µM): 0.45
relative viability ([1]; first compound 1.265 µM): 0.204
relative viability ([2]; first compound 0.04 µM): 0.505
relative viability ([2]; first compound 0.1265 µM): 0.0522
relative viability ([2]; first compound 0.4 µM): 0.37
relative viability ([2]; first compound 1.265 µM): 0.485
relative viability (Motesanib + Olaparib; first compound 0.01 µM): 0.224
relative viability (Motesanib + Olaparib; first compound 0.03162 µM): 0.32
relative viability (Motesanib + Olaparib; first compound 0.1 µM): 0.322
relative viability (Motesanib + Olaparib; first compound 0.3162 µM): 0.258
relative viability (Motesanib + Olaparib; first compound 1 µM): 0.204

RERF-LC-KJ
relative viability (Motesanib + Pemetrexed; first compound 0.01 µM): 0.471
relative viability (Motesanib + Pemetrexed; first compound 0.03162 µM): 0.502
relative viability (Motesanib + Pemetrexed; first compound 0.1 µM): 0.495
relative viability (Motesanib + Pemetrexed; first compound 0.3162 µM): 0.472
relative viability (Motesanib + Pemetrexed; first compound 1 µM): 0.527
relative viability ([1]; first compound 0.04 µM): 0.747
relative viability ([1]; first compound 0.1265 µM): 0.605
relative viability ([1]; first compound 0.4 µM): 0.621
relative viability ([1]; first compound 1.265 µM): 0.467
relative viability ([2]; first compound 0.04 µM): 0.477
relative viability ([2]; first compound 0.1265 µM): 0.44
relative viability ([2]; first compound 0.4 µM): 0.228
relative viability ([2]; first compound 1.265 µM): 0.494
relative viability (Motesanib + Olaparib; first compound 0.01 µM): 0.981
relative viability (Motesanib + Olaparib; first compound 0.03162 µM): 0.991
relative viability (Motesanib + Olaparib; first compound 0.1 µM): 0.896
relative viability (Motesanib + Olaparib; first compound 0.3162 µM): 1.08
relative viability (Motesanib + Olaparib; first compound 1 µM): 1.04

SK-LU-1
relative viability (Motesanib + Pemetrexed; first compound 0.01 µM): 0.961
relative viability (Motesanib + Pemetrexed; first compound 0.03162 µM): 0.806
relative viability (Motesanib + Pemetrexed; first compound 0.1 µM): 0.547
relative viability (Motesanib + Pemetrexed; first compound 0.3162 µM): 0.417
relative viability (Motesanib + Pemetrexed; first compound 1 µM): 0.347
relative viability ([1]; first compound 0.04 µM): 0.804
relative viability ([1]; first compound 0.1265 µM): 0.761
relative viability ([1]; first compound 0.4 µM): 0.55
relative viability ([1]; first compound 1.265 µM): 0.367
relative viability ([2]; first compound 0.04 µM): 0.546
relative viability ([2]; first compound 0.1265 µM): 0.453
relative viability ([2]; first compound 0.4 µM): 0.428
relative viability ([2]; first compound 1.265 µM): 0.502
relative viability (Motesanib + Olaparib; first compound 0.01 µM): 0.445
relative viability (Motesanib + Olaparib; first compound 0.03162 µM): 0.504
relative viability (Motesanib + Olaparib; first compound 0.1 µM): 0.425
relative viability (Motesanib + Olaparib; first compound 0.3162 µM): 0.505
relative viability (Motesanib + Olaparib; first compound 1 µM): 0.373

SK-MES-1
relative viability (Motesanib + Pemetrexed; first compound 0.01 µM): 0.912
relative viability (Motesanib + Pemetrexed; first compound 0.03162 µM): 0.953
relative viability (Motesanib + Pemetrexed; first compound 0.1 µM): 1.03
relative viability (Motesanib + Pemetrexed; first compound 0.3162 µM): 0.943
relative viability (Motesanib + Pemetrexed; first compound 1 µM): 1.02
relative viability ([1]; first compound 0.04 µM): 1.21
relative viability ([1]; first compound 0.1265 µM): 1.05
relative viability ([1]; first compound 0.4 µM): 0.859
relative viability ([1]; first compound 1.265 µM): 0.354
relative viability ([2]; first compound 0.04 µM): 0.335
relative viability ([2]; first compound 0.1265 µM): 0.268
relative viability ([2]; first compound 0.4 µM): 0.286
relative viability ([2]; first compound 1.265 µM): 0.306
relative viability (Motesanib + Olaparib; first compound 0.01 µM): 0.736
relative viability (Motesanib + Olaparib; first compound 0.03162 µM): 0.725
relative viability (Motesanib + Olaparib; first compound 0.1 µM): 0.736
relative viability (Motesanib + Olaparib; first compound 0.3162 µM): 0.677
relative viability (Motesanib + Olaparib; first compound 1 µM): 0.575

SW 1573
relative viability (Motesanib + Pemetrexed; first compound 0.01 µM): 0.764
relative viability (Motesanib + Pemetrexed; first compound 0.03162 µM): 0.833
relative viability (Motesanib + Pemetrexed; first compound 0.1 µM): 0.864
relative viability (Motesanib + Pemetrexed; first compound 0.3162 µM): 0.882
relative viability (Motesanib + Pemetrexed; first compound 1 µM): 0.854
relative viability ([1]; first compound 0.04 µM): 0.667
relative viability ([1]; first compound 0.1265 µM): 0.585
relative viability ([1]; first compound 0.4 µM): 0.482
relative viability ([1]; first compound 1.265 µM): 0.263
relative viability ([2]; first compound 0.04 µM): 0.438
relative viability ([2]; first compound 0.1265 µM): 0.251
relative viability ([2]; first compound 0.4 µM): 0.377
relative viability ([2]; first compound 1.265 µM): 0.455
relative viability (Motesanib + Olaparib; first compound 0.01 µM): 0.504
relative viability (Motesanib + Olaparib; first compound 0.03162 µM): 0.485
relative viability (Motesanib + Olaparib; first compound 0.1 µM): 0.42
relative viability (Motesanib + Olaparib; first compound 0.3162 µM): 0.588
relative viability (Motesanib + Olaparib; first compound 1 µM): 0.504
